Measured values reported in patent publication US20230076646A1, “HERBICIDE COMBINATIONS COMPRISING GLUFOSINATE AND SULFENTRAZONE” (BASF SE, priority 2020, published 2023).

Key:
Assay in all cases: Greenhouse post-emergence weed control, percent injury vs untreated control
Conditions in all cases: 504 h
[1] = tested on: Amaranthus Palmerii (AMAPA); format: in vivo, Amaranthus palmeri
Experimental: (§1) Glufosinate was used as a commercial SL formulation containing 280 g ai/l of glufosinate (Liberty 280 SL, BASF). While the PPO herbicide Spartan containing 480 g ai/l sulfentrazone was used (Spartan 480 SC, FMC) formulation. • The evaluation for plant injury or damage caused by the chemical compositions was carried out using a scale from 0-100% when compared with the untreated control plants. Here, 0 means no damage and 100 means complete destruction of the plants.
(§2) 22., E=X+Y−(X*Y/100), where • X=effect in percent using herbicide A at an application rate of a; • Y=effect in percent using herbicide B at an application rate of b; • E=expected effect (in %) of A+B at application rates a+b.
(§3) The value E corresponds to the effect (plant damage or injury) which is to be expected if the activity of the individual compounds is just additive. If the observed effect is higher than the value E calculated according to Colby, a synergistic effect is present.
Seedlings of Palmer amaranth (Amaranthus palmeri; AMAPA), common waterhemp (Amaranthuis tameriscinus; AMATA), and barnyardgrass (Echinochloa crus-galli; ECHCG) were treated with postemergence applications of either glufosinate at 246 g ai/ha, sulfentrazone at 4.2 or 42 g ai/ha, or the combination of glufosinate (246 g ai/ha) and sulfentrazone (4.2, 42 g ai/ha), respectively, when they were 5-10 cm in height. […]

[2] = tested on: Amaranthus tamariscinus (AMATA); format: in vivo
Experimental: as §1, §2, §3
(§4) Seedlings of Palmer amaranth (Amaranthus palmeri; AMAPA), common waterhemp (Amaranthuis tameriscinus; AMATA), and barnyardgrass (Echinochloa crus-galli; ECHCG) were treated with postemergence applications of either glufosinate at 246 g ai/ha, sulfentrazone at 4.2 or 42 g ai/ha, or the combination of glufosinate (246 g ai/ha) and sulfentrazone (4.2, 42 g ai/ha), respectively, when they were 5-10 cm in height. All glufosinate treatments contained 1% (w/v) ammonium sulfate and solo sulfentrazone treatments contained 1% (v/v) MSO surfactant. Plants were placed in a completely randomized design with four replications per treatment. Percent injury data was collected 21 days after treatment (DAT).

[3] = tested on: Echinochloa crus-galli (ECHCG); format: in vivo
Experimental: as §1, §2, §3, §4

[4] = read-out: Solo Glufosinate (246 g ai/ha) % activity

| SMILES | inhibition at 246 g/ha [1, 4] [%] | inhibition at 246 g/ha [2, 4] [%] | inhibition at 246 g/ha [3, 4] [%] | inhibition at 4.2 g/ha ([1]; AMAPA, 4.2 g ai/ha, 1% (v/v) MSO, 21 DAT, 0 = no damage, 100 = complete destruction, read-out: Solo Sulfentrazone (4.2 g ai/ha) % activity) [%] | inhibition at 42 g/ha ([2]; AMATA, 42 g ai/ha, 1% (v/v) MSO, 21 DAT, read-out: Solo Sulfentrazone (42 g ai/ha) % activity) [%] | inhibition at 42 g/ha ([3]; ECHCG, 42 g ai/ha, 1% (v/v) MSO, 21 DAT, read-out: Solo Sulfentrazone (42 g ai/ha) % activity) [%] |
| --- | --- | --- | --- | --- | --- | --- |
| CP(=O)(O)CCC(N)C(=O)O (racemic) [Glufosinate, (2RS)-2-amino-4-[hydroxy(methyl)phosphinoyl]butyric acid] | 79 | 79 | 57 |  |  |  |
| Cc1nn(-c2cc(NS(C)(=O)=O)c(Cl)cc2Cl)c(=O)n1C(F)F [Sulfentrazone, sulfentrazone] |  |  |  | 20 | 33 | 23 |
